According to patent US9926281B2 (priority 2014, dated 2018):
pIC50: −log10 of the molar value.

Legend:
rnADAMTS-5 (1-564-6H) = rnADAMTS-5 (1-564-6H) (Rattus norvegicus, UniProt Q6TY19); conditions: read-out: Rat ADAMTS-5 potency IC50
human TACE = human TACE (Homo sapiens (Human), UniProt P78536); conditions: read-out: TACE potency IC50
human MMP13 = human MMP13 (Homo sapiens (Human), UniProt P45452); conditions: read-out: hMMP-13 potency IC50
Procedure: Human MMP13 is preactivated by incubated the enzyme in the same buffer complemented with 1 mM freshly prepared p-Aminophenylmercuric acetate (AMPA) for 1 hour at 37° C.

human ADAMTS-5 = human ADAMTS-5 (Homo sapiens (Human), UniProt Q9UNA0); conditions: read-out: hADAMTS-5 potency IC50
Sequence of human ADAMTS-5 (Q9UNA0 262-930): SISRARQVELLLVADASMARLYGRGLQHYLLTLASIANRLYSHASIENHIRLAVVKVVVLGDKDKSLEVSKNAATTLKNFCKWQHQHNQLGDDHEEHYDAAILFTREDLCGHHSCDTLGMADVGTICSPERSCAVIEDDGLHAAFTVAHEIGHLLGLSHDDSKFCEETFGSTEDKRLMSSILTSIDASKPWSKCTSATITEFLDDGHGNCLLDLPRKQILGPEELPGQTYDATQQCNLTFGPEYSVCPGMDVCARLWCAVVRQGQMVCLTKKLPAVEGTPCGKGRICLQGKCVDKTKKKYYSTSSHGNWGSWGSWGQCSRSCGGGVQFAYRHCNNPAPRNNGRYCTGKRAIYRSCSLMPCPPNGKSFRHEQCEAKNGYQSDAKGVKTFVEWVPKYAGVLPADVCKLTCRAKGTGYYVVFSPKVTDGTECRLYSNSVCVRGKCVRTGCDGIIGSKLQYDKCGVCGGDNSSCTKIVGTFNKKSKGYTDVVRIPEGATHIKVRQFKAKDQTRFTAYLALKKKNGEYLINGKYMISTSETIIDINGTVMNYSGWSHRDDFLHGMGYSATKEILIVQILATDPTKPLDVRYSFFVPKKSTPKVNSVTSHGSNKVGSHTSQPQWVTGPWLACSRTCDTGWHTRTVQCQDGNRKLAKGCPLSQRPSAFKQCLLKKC
Procedure: Finally, the fluorescence is read on the Envision (Perkin Elmer) after an incubation of 90 min at 37° C.

Sequence of human TACE (P78536 whole entry, looked up, change not shown): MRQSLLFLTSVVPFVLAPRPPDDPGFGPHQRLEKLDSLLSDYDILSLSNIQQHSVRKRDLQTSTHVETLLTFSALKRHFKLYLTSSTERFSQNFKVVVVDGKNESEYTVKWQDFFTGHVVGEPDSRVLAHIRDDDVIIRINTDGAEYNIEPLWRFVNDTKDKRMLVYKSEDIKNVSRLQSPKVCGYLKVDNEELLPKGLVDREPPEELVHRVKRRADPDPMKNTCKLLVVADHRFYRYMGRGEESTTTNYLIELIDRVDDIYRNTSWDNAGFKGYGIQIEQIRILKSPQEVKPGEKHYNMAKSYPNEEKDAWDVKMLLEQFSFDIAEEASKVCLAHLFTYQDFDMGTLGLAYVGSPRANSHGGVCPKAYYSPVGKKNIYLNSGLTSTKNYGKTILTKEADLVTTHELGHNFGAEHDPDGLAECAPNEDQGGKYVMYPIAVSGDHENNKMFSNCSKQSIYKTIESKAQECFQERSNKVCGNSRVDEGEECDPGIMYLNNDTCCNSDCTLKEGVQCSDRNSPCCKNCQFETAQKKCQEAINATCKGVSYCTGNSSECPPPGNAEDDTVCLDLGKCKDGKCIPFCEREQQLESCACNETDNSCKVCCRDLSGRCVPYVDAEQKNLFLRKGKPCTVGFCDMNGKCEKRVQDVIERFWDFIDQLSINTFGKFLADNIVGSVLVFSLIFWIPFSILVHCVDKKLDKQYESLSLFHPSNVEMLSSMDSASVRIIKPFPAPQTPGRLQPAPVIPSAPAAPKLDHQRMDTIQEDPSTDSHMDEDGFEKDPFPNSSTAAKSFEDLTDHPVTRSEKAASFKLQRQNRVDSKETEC

| SMILES | pIC50 (rnADAMTS-5 (1-564-6H)) | pIC50 (human TACE) | pIC50 (human MMP13) | pIC50 (human ADAMTS-5) |
| --- | --- | --- | --- | --- |
| CS(=O)(=O)c1ccc(C2(CCC(=O)N3CCN(c4cccc(Cl)c4)CC3)NC(=O)NC2=O)cc1 (stereo not drawn) [compound 124, 5-[3-[4-(3-chlorophenyl)piperazin-1-yl]-3-oxo-propyl]-5-(4-methylsulfonylphenyl)imidazolidine-2,4-dione] | 7.43 | 6.06 | 5.89 |  |
| Cc1ccc(F)cc1N1CCN(C(=O)CCC2(C3CC3)NC(=O)NC2=O)CC1 (stereo not drawn) [compound 116, 5-cyclopropyl-5-[3-[4-(5-fluoro-2-methyl-phenyl)piperazin-1-yl]-3-oxo-propyl]imidazolidine-2,4-dione] | 7.54 | < 5.33 | < 4.70 |  |
| COc1ccccc1C1(CCC(=O)N2CCN(c3cccc(Cl)c3)CC2)NC(=O)NC1=O (stereo not drawn) [compound 146, 5-[3-[4-(3-chlorophenyl)piperazin-1-yl]-3-oxo-propyl]-5-(2-methoxyphenyl)imidazolidine-2,4-dione] | 6.88 | 5.80 | 5.41 |  |
| C[C@H]1CN(C(=O)CCC2(C)NC(=O)NC2=O)CCN1c1cc(F)cc(F)c1 (stereo partly drawn) [compound 156, 5-[3-[(3S)-4-(3,5-difluorophenyl)-3-methyl-piperazin-1-yl]-3-oxo-propyl]-5-methyl-imidazolidine-2,4-dione] | 6.89 | < 4.70 | < 4.70 |  |
| N#Cc1cccc(N2CCN(C(=O)CCC3(C4CC4)NC(=O)NC3=O)CC2)c1 (stereo not drawn) [compound 195, 3-[4-[3-(4-cyclopropyl-2,5-dioxo-imidazolidin-4-yl)propanoyl]piperazin-1-yl]benzonitrile] | 6.58 |  |  | 6.50 |
| Cc1c(Cl)cc(Cl)cc1N1CCN(C(=O)CCC2(C)NC(=O)NC2=O)C[C@@H]1C (stereo partly drawn) [compound 178, 5-[3-[(3S)-4-(3,5-dichloro-2-methyl-phenyl)-3-methyl-piperazin-1-yl]-3-oxo-propyl]-5-methyl-imidazolidine-2,4-dione] | 6.46 |  |  | 6.24 |
| O=C1NC(=O)C(CCC(=O)N2CCN(c3cccc(Cl)c3)CC2)(CNCc2ccccc2)N1 (stereo not drawn) [compound 184, 5-[(benzylamino)methyl]-5-[3-[4-(3-chlorophenyl)piperazin-1-yl]-3-oxo-propyl]imidazolidine-2,4-dione] | 6.55 |  |  | 6.57 |
| CC(CC1(C)NC(=O)NC1=O)C(=O)N1CCN(c2cc(F)cc(Cl)c2)[C@@H](C)C1 (stereo partly drawn) [compound 418, 5-(3-((S)-4-(3-chloro-5-fluorophenyl)-3-methylpiperazin-1-yl)-2-methyl-3-oxopropyl)-5-methylimidazolidine-2,4-dione] |  | < 5.40 | < 5.40 | 7.48 |
| CC(CC1(C2CC2)NC(=O)NC1=O)C(=O)N1CCN(c2cc(F)cc(Cl)c2)[C@@H](C)C1 (stereo partly drawn) [compound 413, 5-(3-((S)-4-(3-chloro-5-fluorophenyl)-3-methylpiperazin-1-yl)-2-methyl-3-oxopropyl)-5-cyclopropylimidazolidine-2,4-dione] |  | < 5.40 | 6.02 | 7.96 |
| CC(CC1(c2ccccn2)NC(=O)NC1=O)C(=O)N1CCN(c2cc(Cl)cc(Cl)c2)CC1 (stereo not drawn) [compound 231, 5-[3-[4-(3,5-dichlorophenyl)piperazin-1-yl]-2-methyl-3-oxo-propyl]-5-(2-pyridyl)imidazolidine-2,4-dione] |  | 6.97 | 6.12 | 7.70 |
| CC(C)C(CC1(C)NC(=O)NC1=O)C(=O)N1CCN(c2cc(Cl)cc(Cl)c2)CC1 (stereo not drawn) [compound 438, 5-(2-(4-(3,5-dichlorophenyl)piperazine-1-carbonyl)-3-methylbutyl)-5-methylimidazolidine-2,4-dione] |  | 5.89 | 5.73 | 7.25 |
| C[C@@H](C[C@@]1(C)NC(=O)NC1=O)C(=O)N1CCN(c2ccc(F)c(Cl)c2)[C@@H](C)C1 [Cpd 265] | 7.66 | < 5.40 |  | 7.74 |
| C[C@H]1CN(C(=O)CCC2(C)NC(=O)NC2=O)CCN1c1ccc(F)c(F)c1 (stereo partly drawn) [compound 165, 5-[3-[(3S)-4-(3,4-difluorophenyl)-3-methyl-piperazin-1-yl]-3-oxo-propyl]-5-methyl-imidazolidine-2,4-dione] |  | < 4.70 | < 4.70 | 6.68 |
| COCC1(CC(C)C(=O)N2CCN(c3cc(Cl)cc(Cl)c3)[C@@H](C)C2)NC(=O)NC1=O (stereo partly drawn) [compound 429, 5-(3-((S)-4-(3,5-dichlorophenyl)-3-methylpiperazin-1-yl)-2-methyl-3-oxopropyl)-5-(methoxymethyl)imidazolidine-2,4-dione] |  | < 5.40 | < 4.70 | 7.28 |
| COCC1(CC(C)C(=O)N2CCN(c3cc(F)cc(F)c3)[C@@H](C)C2)NC(=O)NC1=O (stereo partly drawn) [compound 225, 5-[3-[(3S)-4-(3,5-difluorophenyl)-3-methyl-piperazin-1-yl]-2-methyl-3-oxo-propyl]-5-(methoxymethyl)imidazolidine-2,4-dione] |  | < 4.70 | 5.40 | 7.55 |
| Cc1c(Cl)cc(Cl)cc1N1CCN(C(=O)C(C)CC2(C)NC(=O)NC2=O)C[C@@H]1C (stereo partly drawn) [compound 423, 5-(3-((S)-4-(3,5-dichloro-2-methylphenyl)-3-methylpiperazin-1-yl)-2-methyl-3-oxopropyl)-5-methylimidazolidine-2,4-dione] |  | 5.83 | < 4.70 | 7.24 |
| COC(CC1(C)NC(=O)NC1=O)C(=O)N1CCN(c2cc(Cl)cc(Cl)c2)CC1 (stereo not drawn) [compound 439, 5-(3-(4-(3,5-dichlorophenyl)piperazin-1-yl)-2-methoxy-3-oxopropyl)-5-methylimidazolidine-2,4-dione] |  | 6.10 | < 5.40 | 7.37 |
| O=C1NC(=O)C(CC(O)C(=O)N2CCN(c3cc(Cl)cc(Cl)c3)CC2)(C2CC2)N1 (stereo not drawn) [compound 201, 5-cyclopropyl-5-[3-[4-(3,5-dichlorophenyl)piperazin-1-yl]-2-hydroxy-3-oxo-propyl]imidazolidine-2,4-dione] |  | < 4.70 | < 4.70 | 6.51 |
| CC1(CC(CO)C(=O)N2CCN(c3cc(Cl)cc(Cl)c3)CC2)NC(=O)NC1=O (stereo not drawn) [compound 220, 5-[3-[4-(3,5-dichlorophenyl)piperazin-1-yl]-2-(hydroxymethyl)-3-oxo-propyl]-5-methyl-imidazolidine-2,4-dione] |  | 6.61 | < 5.40 | 7.74 |
| CC(CC1(c2ccccn2)NC(=O)NC1=O)C(=O)N1CCN(c2cc(Cl)cc(Cl)c2)CC1 (stereo not drawn) [compound 434, 5-(3-(4-(3,5-dichlorophenyl)piperazin-1-yl)-2-methyl-3-oxopropyl)-5-(pyridin-2-yl)imidazolidine-2,4-dione] |  | 6.97 | 6.12 | 7.70 |
| CCC(CC1(C)NC(=O)NC1=O)C(=O)N1CCN(c2cc(Cl)cc(Cl)c2)CC1 (stereo not drawn) [compound 236, 5-[2-[4-(3,5-dichlorophenyl)piperazine-1-carbonyl]butyl]-5-methyl-imidazolidine-2,4-dione] |  | 6.65 | 5.91 | 7.82 |
| COCC(CC1(C)NC(=O)NC1=O)C(=O)N1CCN(c2cc(Cl)cc(Cl)c2)CC1 (stereo not drawn) [compound 436, 5-(3-(4-(3,5-dichlorophenyl)piperazin-1-yl)-2-(methoxymethyl)-3-oxopropyl)-5-methylimidazolidine-2,4-dione] |  | 6.43 | < 5.40 | 7.66 |
| CC(CC1(C2CC2)NC(=O)NC1=O)C(=O)N1CCN(c2cc(Cl)cc(Cl)c2)CC1 (stereo not drawn) [compound 409, 5-cyclopropyl-5-(3-(4-(3,5-dichlorophenyl)piperazin-1-yl)-2-methyl-3-oxopropyl)imidazolidine-2,4-dione] |  | 6.51 | 5.56 | 7.77 |
| CC1(CC(COCc2ccccc2)C(=O)N2CCN(c3cc(Cl)cc(Cl)c3)CC2)NC(=O)NC1=O (stereo not drawn) [compound 424, 5-(2-(benzyloxymethyl)-3-(4-(3,5-dichlorophenyl)piperazin-1-yl)-3-oxopropyl)-5-methylimidazolidine-2,4-dione] |  | < 4.97 | < 4.70 | 7.28 |
| COC(CC1(C)NC(=O)NC1=O)C(=O)N1CCN(c2cccc(F)c2)[C@@H](C)C1 (stereo partly drawn) [compound 294, 5-[3-[(3S)-4-(3-fluorophenyl)-3-methyl-piperazin-1-yl]-2-methoxy-3-oxo-propyl]-5-methyl-imidazolidine-2,4-dione] | 6.89 | < 4.70 |  | 6.87 |
| C[C@H]1CN(C(=O)CC[C@@]2(C3CC3)NC(=O)NC2=O)CCN1c1ccc(Cl)c(Cl)c1 [compound 416, 5-cyclopropyl-5-(3-((S)-4-(3,4-dichlorophenyl)-3-methylpiperazin-1-yl)-3-oxopropyl)imidazolidine-2,4-dione] |  | < 5.40 | 5.54 | 7.92 |
| CC(CC1(C)NC(=O)NC1=O)C(=O)N1CCN(c2cc(Cl)cc(Cl)c2)[C@@H](C)C1 (stereo partly drawn) [compound 420, 5-(3-((S)-4-(3,5-dichlorophenyl)-3-methylpiperazin-1-yl)-2-methyl-3-oxopropyl)-5-methylimidazolidine-2,4-dione] |  | 5.53 | < 4.85 | 7.49 |
| C[C@H]1CN(C(=O)CCC2(C)NC(=O)NC2=O)CCN1c1ccc(F)c(Cl)c1 (stereo partly drawn) [compound 166, 5-[3-[(3S)-4-(3-chloro-4-fluoro-phenyl)-3-methyl-piperazin-1-yl]-3-oxo-propyl]-5-methyl-imidazolidine-2,4-dione] |  | < 4.70 | < 4.70 | 6.58 |
| CC(CC1(C)NC(=O)NC1=O)C(=O)N1CCN(c2ccc(F)c(Cl)c2)[C@@H](C)C1 (stereo partly drawn) [compound 422, 5-(3-((S)-4-(3-chloro-4-fluorophenyl)-3-methylpiperazin-1-yl)-2-methyl-3-oxopropyl)-5-methylimidazolidine-2,4-dione] |  | < 5.40 | 5.63 | 7.68 |
